The results in this text go back to patent publication US9635859B2, “Pesticidal compositions and processes related thereto” (Dow AgroSciences LLC, priority 2012, dated 2017).

SMILES strings stand for the structures.

Assay [1] deals with Beet Armyworm (Spodoptera exigua). Briefly: Bioassays on BAW, 128-well diet tray assay. To be noted: percent mortality, second instar larvae, 50 μg/cm^2 on artificial diet, five to seven days, 25° C.; Table 3. It counts as in vivo. The method, boiled down: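 Second-instar larvae (one to five per well) were placed on artificial diet surface-treated with 50 μg/cm^2 compound in acetone-water and held at 25 °C, 14:10 light-dark, for five to seven days. Percent mortality was averaged over eight wells.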

For assay [2], the system named is Cabbage Looper (Trichoplusia ni). Briefly: Bioassays on CL, 128-well diet tray assay. It counts as in vivo. To be noted: percent mortality, second instar larvae, 50 μg/cm^2 on artificial diet, five to seven days, 25° C.; Table 3A. As for the experimental part:
Certain molecules disclosed in this document were tested against BAW and CEW and CL using procedures described in the following examples. In the reporting of the results, the “BAW & CEW & CL Rating Table” was used (See Table Section).
Bioassays on CL (Trichoplusia ni)
Bioassays on CL were conducted using a 128-well diet tray assay. One to five second instar CL larvae were placed in each well (3 mL) of the diet tray that had been previously filled with 1 mL of artificial diet to which 50 μg/cm^2 of the test compound (dissolved in 50 μL of 90:10 acetone-water mixture) had been applied (to each of eight wells) and then allowed to dry. Trays were covered with a clear self-adhesive cover, and held at 25° C., 14:10 light-dark for five to seven days. Percent mortality was recorded for the larvae in each well; activity in the eight wells was then averaged. The results are indicated in the table entitled “Table 3A: Assay Results” (See Table Section).

In the case of `C=CCNC(=S)NCc1ccc(/C=C/C(c2cc(Cl)c(Cl)c(Cl)c2)C(F)(F)F)cc1Cl` (stereo not drawn) [CC38], the “BAW Rating” value in assay [1] is reported as “A (50-100)”.
Take `FC(F)(F)C(/C=C/c1ccc(CNc2ccccn2)c(Cl)c1)c1cc(Cl)c(Cl)c(Cl)c1` (stereo not drawn) [CC43, (E)-N-(2-Chloro-4-(4,4,4-trifluoro-3-(3,4,5-trichlorophenyl)but-1-en-1-yl)benzyl)pyridin-2-amine]: the “BAW Rating” value in assay [1] was “A (50-100)”.
On the same count and under the same terms, in the case of `O=C(CC(F)(F)F)NCc1ncc(/C=C/C(c2cc(Cl)c(Cl)c(Cl)c2)C(F)(F)F)cc1Cl` (stereo not drawn) [CC44, (E)-N-((3-Chloro-5-(4,4,4-trifluoro-3-(3,4,5-trichlorophenyl)-but-1-en-1-yl)pyridin-2-yl)methyl)-3,3,3-trifluoropropanamide] it was “A (50-100)”.
The same measure, in the same setting: in the case of `O=C(NCc1ncc(/C=C/C(c2cc(Cl)c(Cl)c(Cl)c2)C(F)(F)F)cc1Cl)C1CC1` (stereo not drawn) [CC45] it was “A (50-100)”; in that of `O=C(NNc1ccc(/C=C/C(c2cc(Cl)c(Cl)c(Cl)c2)C(F)(F)F)cc1)C1CC1` (stereo not drawn) [CC50, (E)-N′-(4-(4,4,4-Trifluoro-3-(3,4,5-trichlorophenyl)but-1-en-1-yl)phenyl)cyclopropanecarbohydrazide], “A (50-100)”.
With `O=C(CC(F)(F)F)NNc1ccc(/C=C/C(c2cc(Cl)c(Cl)c(Cl)c2)C(F)(F)F)cc1` (stereo not drawn) [CC51], the “BAW Rating” value in assay [1] was “A (50-100)”.
On the same count and under the same terms, in the case of `O=C(NOc1ccc(/C=C/C(c2cc(Cl)c(Cl)c(Cl)c2)C(F)(F)F)cc1)C1CC1` (stereo not drawn) [CC52, (E)-N-(4-(4,4,4-Trifluoro-3-(3,4,5-trichlorophenyl)but-1-en-1-yl)phenoxy)cyclopropanecarboxamide] it was “A (50-100)”; in that of `O=C(CC(F)(F)F)NCc1ccc(/C=C\C(c2cc(Cl)c(Cl)c(Cl)c2)C(F)(F)F)cc1` (stereo not drawn) [CC54, (Z)-3,3,3-Trifluoro-N-(4-(4,4,4-trifluoro-3-(3,4,5-trichlorophenyl)but-1-en-1-yl)benzyl)propanamide], “A (50-100)”.
In the case of `CCNC(=O)N(C)NC(=O)c1ccc(/C=C/C(c2cc(Cl)c(Cl)c(Cl)c2)C(F)(F)F)cc1Br` (stereo not drawn) [Compound F1, (E)-2-(2-Bromo-4-(4,4,4-trifluoro-3-(3,4,5-trichlorophenyl)but-1-en-1-yl)benzoyl)-N-ethyl-1-methylhydrazinecarboxamide], in assay [2], the “CL Rating” value was “A (50-100)”.
Take `O=C(NCC(F)(F)F)NNC(=O)c1ccc(/C=C/C(c2cc(Cl)c(Cl)c(Cl)c2)C(F)(F)F)cc1Br` (stereo not drawn) [Compound F7, (E)-2-(2-Bromo-4-(4,4,4-trifluoro-3-(3,4,5-trichlorophenyl)but-1-en-1-yl)benzoyl)-N-(2,2,2-trifluoroethyl)hydrazinecarboxamide]: the “CL Rating” value in assay [2] is reported as “A (50-100)”.
Turning to `FC(F)(F)C(/C=C/c1ccc(-n2cncn2)cc1)c1cc(Cl)cc(Cl)c1` (stereo not drawn) [DC1, (E)-1-(4-(3-(3,5-Dichlorophenyl)-4,4,4-trifluorobut-1-en-1-yl)phenyl)-1H-1,2,4-triazole], the “BAW Rating” value in assay [1] is listed as “A (50-100)”.
Still for that read-out and setting: in the case of `FC(F)(F)C(/C=C/c1ccc(-n2cncn2)cc1)c1ccccc1` (stereo not drawn) [DC3] it was “B (More than 0-Less than 50)”; in that of `FC(F)(F)C(/C=C/c1ccc(-n2cncn2)cc1)c1ccc(Cl)cc1` (stereo not drawn) [DC4], “A (50-100)”; in that of `Fc1ccc(C(/C=C/c2ccc(-n3cncn3)cc2)C(F)(F)F)cc1` (stereo not drawn) [DC7], “A (50-100)”.
In the case of `Fc1cc(F)cc(C(/C=C/c2ccc(-n3cncn3)cc2)C(F)(F)F)c1` (stereo not drawn) [DC8], the “BAW Rating” value in assay [1] is “A (50-100)”.
Consider `Cc1cc(C)cc(C(/C=C/c2ccc(-n3cncn3)cc2)C(F)(F)F)c1` (stereo not drawn) [DC11], for which the “BAW Rating” value in assay [1] is “A (50-100)”.
On the same count and under the same terms, in the case of `FC(F)(F)C(/C=C/c1ccc(-n2cncn2)cc1)c1ccc(Cl)c(Cl)c1` (stereo not drawn) [DC12] it was “A (50-100)”; in that of `FC(F)(F)c1cc(C(/C=C/c2ccc(-n3cncn3)cc2)C(F)(F)F)cc(C(F)(F)F)c1` (stereo not drawn) [DC16], “A (50-100)”; in that of `COc1c(Cl)cc(C(/C=C/c2ccc(-n3cncn3)cc2)C(F)(F)F)cc1Cl` (stereo not drawn) [DC20], “A (50-100)”.
Turning to `N#Cc1cc(/C=C/C(c2cc(Cl)cc(C(F)(F)F)c2)C(F)(F)F)ccc1-n1cncn1` (stereo not drawn) [DC33], in assay [1], the “BAW Rating” value is given as “A (50-100)”.
Same read-out and setting: in the case of `COc1c(Cl)cc(C(/C=C/c2ccc(-n3cncn3)c(C#N)c2)C(F)(F)F)cc1Cl` (stereo not drawn) [DC34] it was “A (50-100)”; in that of `N#Cc1cc(/C=C/C(c2cc(Cl)c(F)c(Cl)c2)C(F)(F)F)ccc1-n1cncn1` (stereo not drawn) [DC35], “A (50-100)”.
Take `N#Cc1cc(/C=C/C(c2cc(Cl)cc(Cl)c2)C(F)(F)F)ccc1-n1cnc([N+](=O)[O-])n1` (stereo not drawn) [DC37]: the “BAW Rating” value in assay [1] is “A (50-100)”.
Regarding `N#Cc1cc(/C=C/C(c2cc(Cl)cc(Cl)c2)C(F)(F)F)ccc1-n1cnc(N)n1` (stereo not drawn) [DC38], in assay [1], the “BAW Rating” value was “A (50-100)”.
The same measure, in the same setting: in the case of `CC(=O)Nc1ncn(-c2ccc(/C=C/C(c3cc(Cl)cc(Cl)c3)C(F)(F)F)cc2C#N)n1` (stereo not drawn) [DC39] it was “A (50-100)”; in that of `N#Cc1cc(/C=C/C(c2cc(Cl)c(Cl)c(Cl)c2)C(F)(F)F)ccc1-n1cnc([N+](=O)[O-])n1` (stereo not drawn) [DC40, (E)-2-(3-Nitro-1H-1,2,4-triazol-1-yl)-5-(4,4,4-trifluoro-3-(3,4,5-trichlorophenyl)but-1-en-1-yl)benzonitrile], “A (50-100)”; in that of `N#Cc1cc(/C=C/C(c2cc(Cl)c(Cl)c(Cl)c2)C(F)(F)F)ccc1-n1cnc(N)n1` (stereo not drawn) [DC41, (E)-2-(3-Amino-1H-1,2,4-triazol-1-yl)-5-(4,4,4-trifluoro-3-(3,4,5-trichlorophenyl)but-1-en-1-yl)benzonitrile], “A (50-100)”.
Still for that read-out and setting: in the case of `N#Cc1cc(/C=C/C(c2cc(Cl)c(Cl)c(Cl)c2)C(F)(F)F)ccc1-n1cnc(N(C(=O)C2CC2)C(=O)C2CC2)n1` (stereo not drawn) [DC42, (E)-N-(1-(2-Cyano-4-(4,4,4-trifluoro-3-(3,4,5-trichlorophenyl)but-1-en-1-yl)phenyl)-1H-1,2,4-triazol-3-yl)-N-(cyclopropanecarbonyl)cyclopropanecarboxamide] it was “A (50-100)”.
Same read-out and setting: with `N#Cc1cc(/C=C/C(c2cc(Cl)c(Cl)c(Cl)c2)C(F)(F)F)ccc1-n1cnc(NC(=O)C2CC2)n1` (stereo not drawn) [DC43, (E)-N-(1-(2-Cyano-4-(4,4,4-trifluoro-3-(3,4,5-trichlorophenyl)but-1-en-1-yl)phenyl)-1H-1,2,4-triazol-3-yl)cyclopropanecarboxamide] the entry was “A (50-100)”; with `Cc1cc(/C=C/C(c2cc(Cl)cc(Cl)c2)C(F)(F)F)cc(C#N)c1-n1cncn1` (stereo not drawn) [DC44], “A (50-100)”; with `Cc1cc(/C=C/C(c2cc(Cl)c(Cl)c(Cl)c2)C(F)(F)F)cc(C#N)c1-n1cncn1` (stereo not drawn) [DC45], “A (50-100)”.
Turning to `N#Cc1cc(/C=C\C(c2cc(Cl)c(F)c(Cl)c2)C(F)(F)F)ccc1-n1cncn1` (stereo not drawn) [DC46], in assay [1], the “BAW Rating” value was “A (50-100)”.
Still for that read-out and setting: in the case of `FC(F)(F)C(/C=C/c1ccc(-n2cncn2)c(Br)c1)c1cc(Cl)cc(Cl)c1` (stereo not drawn) [DC47] it was “A (50-100)”; in that of `Fc1cc(/C=C/C(c2cc(Cl)cc(Cl)c2)C(F)(F)F)ccc1-n1cncn1` (stereo not drawn) [DC48], “A (50-100)”; in that of `FC(F)(F)C(/C=C/c1ccc(-n2cncn2)c(Cl)c1)c1cc(Cl)c(Cl)c(Cl)c1` (stereo not drawn) [DC49], “A (50-100)”.
On the same count and under the same terms, with `FC(F)(F)C(/C=C/c1ccc(-n2cncn2)c(Cl)c1)c1cc(Cl)cc(Cl)c1` (stereo not drawn) [DC50] the entry was “A (50-100)”; with `FC(F)(F)c1cc(/C=C/C(c2cc(Cl)cc(Cl)c2)C(F)(F)F)ccc1-n1cncn1` (stereo not drawn) [DC51], “A (50-100)”.
As for `CNc1cc(/C=C/C(c2cc(Cl)cc(Cl)c2)C(F)(F)F)ccc1-n1cncn1` (stereo not drawn) [DC57, (E)-5-(3-(3,5-Dichlorophenyl)-4,4,4-trifluorobut-1-en-1-yl)-N-methyl-2-(1H-1,2,4-triazol-1-yl)aniline], the “BAW Rating” value in assay [1] is on record as “A (50-100)”.
Consider `CCOC(=O)c1cc(/C=C/C(c2cc(Cl)cc(Cl)c2)C(F)(F)F)ccc1-n1cncn1` (stereo not drawn) [DC60], for which the “BAW Rating” value in assay [1] is reported as “A (50-100)”.
The same measure, in the same setting: in the case of `Cc1cc(/C=C/C(c2cc(Cl)cc(Cl)c2)C(F)(F)F)ccc1-n1cncn1` (stereo not drawn) [DC62] it was “A (50-100)”; in that of `Cc1cc(/C=C/C(c2cc(Cl)c(Cl)c(Cl)c2)C(F)(F)F)ccc1-n1cncn1` (stereo not drawn) [DC63], “A (50-100)”.
Still for that read-out and setting: with `FC(F)(F)C(/C=C/c1ccc(-n2cncn2)cc1Cl)c1cc(Cl)c(Cl)c(Cl)c1` (stereo not drawn) [DC66] the entry was “A (50-100)”; with `FC(F)(F)C(/C=C/c1ccc(-n2cncn2)cc1Cl)c1cc(Cl)cc(Cl)c1` (stereo not drawn) [DC67], “A (50-100)”; with `C/C(=C\C(c1cc(Cl)cc(Cl)c1)C(F)(F)F)c1ccc(-n2cncn2)cc1` (stereo not drawn) [DC68, (E)-1-(4-(4-(3,5-Dichlorophenyl)-5,5,5-trifluoropent-2-en-2-yl)phenyl)-1H-1,2,4-triazole], “A (50-100)”.
The same measure, in the same setting: with `COC(/C=C/c1ccc(-n2cncn2)cc1)(c1cc(Cl)cc(Cl)c1)C(F)(F)F` (stereo not drawn) [DC70, (E)-1-(4-(3-(3,5-Dichlorophenyl)-4,4,4-trifluoro-3-methoxybut-1-en-1-yl)phenyl)-1H-1,2,4-triazole] the entry was “A (50-100)”.
